The term EC50 denotes the concentration that produces a half-maximal response. A higher EC50 goes with a need for much substance.

Entries after “also recorded” stand apart in the source; their conditions may differ. Where no end group is shown, it is not given here.

The record followed here is PMC7055314, “Ratiometric population sensing by a pump-probe signaling system in Bacillus subtilis” (Nature Communications, 2020).

Data set [1] concerns reporter cells BIB625 (RapA-Spo0F FRET). Description: Bioassay of supernatants: PhrA depletion from medium measured with fresh reporter cells. In kind it is cell-based, Bacillus subtilis. Conditions: 10 nM PhrA, within a few minutes. As to the method:
Induction of FRET reporters: Reporter cells were inoculated from a single colony into 5 ml of LB medium with antibiotics and incubated on a rotary shaker (Infors HT Multitron) at 180 rpm and 37 °C for 7 h. Cells were resuspended at OD600 nm = 0.003 in 5 ml of S7_50 medium and incubated for 16 h overnight. Expression of the fusion proteins was induced by resuspending the reporter cells at an OD600 nm =0.04 in 10 ml of fresh S7_50 supplemented with 100 µM IPTG in a 100-ml flask. When applicable, protein expression from a xylose-inducible promoter was induced by adding xylose at a final concentration of 1% (w/v). Cells were grown to a final OD600 nm ~1.6.
Bioassay and supernatant analysis: The supernatants were collected after centrifugation of stimulated cells. […] The supernatants were then filtered through a 0.2-µm PES membrane, and analyzed as described above with the following modification. To increase the sensitivity of the bioassay, the volume of analyzed supernatant and the incubation time were increased to VS = 1950 µl and tB = 20 min + 1 min, respectively. […]
The FRET efficiency was determined using the formula:5 FRET=CFPpost−CFPpre/CFPpost⋅100%, where CFPpre and CFPpost denote the emission levels before and after acceptor photobleaching, respectively. […] CFPpre is then evaluated at the end of the bleaching period by extrapolating the linear fit accordingly (see Fig. 2b). […]

Data set [2] is described as follows: PhrA stability in cell-free supernatant (Supplementary Fig. 5B). In kind it is in vitro ADME. As to the method: Bioassay and supernatant analysis: The supernatants were collected after centrifugation of stimulated cells. Aliquots (VS = 450 µl) of the cell-free supernatants were mixed with 50 µl of a 10× suspension of fresh unstimulated reporter cells, for tB = 5 min + 1 min (time for incubation plus centrifugation) at room temperature and then processed as described above. To detect extracellular PhrA in S7_50 cultures, wild-type cells (BIB224) were grown for 5 h to an OD600 nn ~ 1.6 and pelleted by centrifugation. The supernatants were then filtered through a 0.2-µm PES membrane, and analyzed as described above with the following modification. To increase the sensitivity of the bioassay, the volume of analyzed supernatant and the incubation time were increased to VS = 1950 µl and tB = 20 min + 1 min, respectively.

The target in data set [3] is T1, CFP-RapA (Bacillus subtilis 168, UniProt Q00828 1-378).
T1 construct: RapA, Rap-family RRNPP-type receptor (response regulator aspartate phosphatase A) of Bacillus subtilis; rapA amplified from B. subtilis 168 genomic DNA; ecfp(Bs) is joined to the N-terminus of RapA by a GSGGV linker; also called RapA receptor; RapA-CFP; source: B. subtilis reporter strain BIB625 (ΔrapA-phrA Δspo0F), IPTG-induced from the amyE locus, in living cells; not shown: eCFP(Bs), …
T1 sequence (looked up): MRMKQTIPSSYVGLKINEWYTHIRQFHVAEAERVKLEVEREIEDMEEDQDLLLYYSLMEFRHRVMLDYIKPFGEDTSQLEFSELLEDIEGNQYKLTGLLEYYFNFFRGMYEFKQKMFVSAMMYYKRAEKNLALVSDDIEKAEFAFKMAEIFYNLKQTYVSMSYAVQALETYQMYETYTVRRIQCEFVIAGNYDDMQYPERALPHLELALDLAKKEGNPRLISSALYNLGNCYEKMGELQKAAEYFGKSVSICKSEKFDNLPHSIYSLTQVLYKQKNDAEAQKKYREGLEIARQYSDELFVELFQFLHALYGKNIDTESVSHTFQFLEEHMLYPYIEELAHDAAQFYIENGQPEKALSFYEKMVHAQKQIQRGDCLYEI
Kind of data set: FRET or BRET; loss of CFP-RapA/Spo0F-YFP FRET in B. subtilis reporter cells against PhrA; EC50 is the intracellular PhrA concentration of the half-maximal response, inferred by fitting all data of Figs. 4 and 5 to the pump-probe model (Hill function). Conditions: one partner purified.

For ARNQT [PhrA], in data set [1], the “extracellular PhrA level after stimulation” value is recorded as “below the detection limit of the bioassay”. Also, in data set [2] (10 nM PhrA in cell-free supernatant, room temperature, bioassay read-out, ne = 3), the “time for which bioassay FRET remained unchanged (stability)” value was “at least 8 h”. Also, in data set [2] (10 nM PhrA in cell-free supernatant, room temperature, up to at least 8 h, ne = 3), the “bioassay FRET during incubation in cell-free supernatant” value is ~ 7%. Besides, the “extracellular stability” value in data set [2] (10 nM PhrA, cell-free supernatant) is “stable in cell-free supernatants; also recorded: stable for hours”.

B1: PhrA (peptide)
peptide: ARNQT
notes: PhrA, the mature linear pentapeptide derived from the phrA gene product of Bacillus subtilis; also called PhrA pentapeptide; ARNQT; source: synthetic peptide (Peptides and Elephant, purity >95%)
In turn, B1 returned an EC50 in data set [3] of 38 µM.
